In experiment [1] the target is T1, hTRAAK (Homo sapiens, UniProt Q9NYG8).
T1 construct: expressed in transfected cells; host or cells: COS-7 cells, transient DEAE-dextran transfection of pIRES-CD8.hTRAAK
T1 sequence (Q9NYG8 1-393): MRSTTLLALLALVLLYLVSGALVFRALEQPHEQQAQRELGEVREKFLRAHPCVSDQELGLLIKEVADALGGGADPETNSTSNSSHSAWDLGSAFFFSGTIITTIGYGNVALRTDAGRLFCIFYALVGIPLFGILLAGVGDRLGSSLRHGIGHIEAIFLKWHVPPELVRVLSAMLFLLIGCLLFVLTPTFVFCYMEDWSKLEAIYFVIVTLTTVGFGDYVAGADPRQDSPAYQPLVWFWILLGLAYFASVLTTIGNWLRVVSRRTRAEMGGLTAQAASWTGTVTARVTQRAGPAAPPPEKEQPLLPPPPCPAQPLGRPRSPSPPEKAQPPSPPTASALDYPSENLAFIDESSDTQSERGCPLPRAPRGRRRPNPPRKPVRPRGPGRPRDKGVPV
Briefly: Whole cell configuration electrophysiology of hTRAAK current in transfected COS cells. Type of experiment: cell-based. The procedure:
Electrophysiological experiments were performed in COS cells transfected in a temporary manner.
It has been shown that certain members of the family of K^+ channels with two P domains (TREK-1 and TASK-1) are opened by volatile general anesthetics (Patel et al., 1999). We, therefore, also investigated the effect of chloroform on hTRAAK.
In fact, the opening of the channel is mediated by a deformation of the membrane (Maingret et al., 1999 (a); Patel et al., 1998).
The COS-7 cells were maintained in Eagle medium as modified by Dulbecco supplemented with 10% fetal calf's serum. The plasmid pIRES-cD8-hTRAAK was transfected using the conventional DEAE dextran procedure. The positive cells were visualized 48 h after transfection using the method of beads covered by the anti-CD8 antibody (Maingret et al., 1999 (a); Maingret et al., 1999 (b)).
For the experiments on whole cells and the outside-in experiments, the pipette solution (INT) contained 150 mM KCl, […], 5 mM EGTA and 10 mM HEPES, pH adjusted with KOH. The bath solution (EXT) contained 150 mM NaCl, 5 mM KCl, 3 mM MgCl2, 1 mM CaCl2 and 10 mM HEPES, pH 7.4 adjusted with NaOH. For the inside-out experiments, the solution in the pipette was EXT and the bath solution was INT. The EXT solution rich in K^+ contained 150 mM KCl in place of 150 mM NaCl. To study the selectivity of the ions, the relationships between the current and the voltage were obtained at different ext. K^+ concentrations. For each concentration, NaCl was replaced in the EXT solution by equimolar KCl.
All of the products were obtained from Sigma. The fatty acids were dissolved in ethanol at the concentration of 100 mM, put under argon and stored at […] for one week.

The target in experiment [2] is T1, hTRAAK. Briefly: Excised patch (outside-out configuration) recording of hTRAAK in transfected COS cells. It counts as cell-based. The procedure:
Under physiological conditions, the current induced by AA is outward rectifying and changes direction at […], n=7 (FIG. 5A). When the exterior Na^+ is replaced by K^+, the current becomes linear and the direction change potential is −0.6±0.8 mV, n=7 (FIG. 5B). hTRAAK is also activated by the polyunsaturated acid decosahexaenoate (10 μM, n=3), but is insensitive to the saturated fatty acids myristate, palmitate, stearate and arachinate (10 μM, n=6 to 8). […] The stimulation by AA of hTRAAK remains then when the patch is excised (FIG. 5C). The current induced by AA observed in an outside-out configuration is outward rectifying and changes direction at the reverse potential of K^+ (FIG. 5C, box). […] In fact, the opening of the channel is mediated by a deformation of the membrane (Maingret et al., 1999 (a); Patel et al., 1998). FIG. 5D illustrates the mechanical sensitivity of hTRAAK. In the reverse patch configuration, the activity of the channel is almost absent at atmospheric pressure. Application of negative pressure opens the channels in a dose-dependent manner.
The COS-7 cells were maintained in Eagle medium as modified by Dulbecco supplemented with 10% fetal calf's serum. The plasmid pIRES-cD8-hTRAAK was transfected using the conventional DEAE dextran procedure. […]

In the case of `ClC(Cl)Cl` [chloroform], the “effect on the channel's activity” value on hTRAAK [1] (0.8 mM, n=8) is “no effect”.
Take `COc1ccc(Cl)cc1C(=O)NCCc1ccc(S(=O)(=O)NC(=O)NC2CCCCC2)cc1` [glibenclamide]: at hTRAAK [1] (10 μM, whole cell configuration), the “sensitivity of hTRAAK to K+ channel blocking agent” value was “insensitive”.
For `CC[N+](CC)(CC)CC` [TEA], the “sensitivity of hTRAAK to K+ channel blocking agent” value at hTRAAK [1] (10 mM, whole cell configuration) is reported as “insensitive”.
As for `C=C[C@H]1C[N@@]2CC[C@H]1C[C@@H]2[C@@H](O)c1ccnc2ccc(OC)cc12` [quinidine], the “sensitivity of hTRAAK to K+ channel blocking agent” value at hTRAAK [1] (100 μm, whole cell configuration) is recorded as “insensitive”.
Take `Nc1ccncc1` [4AP]: the “sensitivity of hTRAAK to K+ channel blocking agent” value on hTRAAK [1] (3 mM, whole cell configuration) is given as “insensitive”.
On to `CC/C=C\C/C=C\C/C=C\C/C=C\C/C=C\C/C=C\CCC(=O)O` [decosahexaenoate], for which the “activation of hTRAAK by polyunsaturated fatty acid” value on hTRAAK [1] (10 μM, n=3) is given as “activated”.
With `CCCCCCCCCCCCCCCCCCCC(=O)O` [arachinate], at hTRAAK [1] (10 μM, n=6 to 8), the “sensitivity of hTRAAK to saturated fatty acids” value is reported as “insensitive”.
Take `CCCCC/C=C\C/C=C\C/C=C\C/C=C\CCCC(=O)O` [arachidonic acid]: the “potentiation of human TRAAK activity” value at hTRAAK [1] (10 μm, whole cell configuration, at 0 mV, n=19) is recorded as 630±101%. Besides, the reversibility of activation entry on hTRAAK [1] (by means of washing) is “completely reversible”. Further, at hTRAAK [1] (exterior Na+ replaced by K+, n=7), the “direction change potential of the induced current” value was −0.6±0.8 mV. For the same compound, the potential at which the induced current changes direction at hTRAAK [1] (physiological conditions, n=7) was -80.6 ± 0.9 mV. For the same compound, the “stimulation of hTRAAK when the patch is excised” value at hTRAAK [2] is listed as “remains”.
In the case of `Nc1nc2ccc(OC(F)(F)F)cc2s1` [riluzole], on hTRAAK [1] (no concentration or data printed), the “activation of hTRAAK” value is “activated”.
As for `[Ba+2]` [barium], the “sensitivity of hTRAAK to K+ channel blocking agent” value at hTRAAK [1] (1 mM, whole cell configuration) is “insensitive”.

(Values after patent US20030049697A1, “Family of mechanosensitive human potassium channels activated by polyunsaturated fatty acids and their use” (CENTRE NATIONAL DE LA RECHERCHE SCIENTIFIQUE, C.N.R.S., priority 2000, published 2003).)
